# Experimental data as given in patent US12433876B2, “Septin inhibitors for treatment of cancers” (UNIVERSITY OF ROCHESTER, priority 2019, dated 2025).
# “And” between values parts separate entries of the source, which are not always exact repeats. Equal entries are not always repeated.
# Experiments:
# Type in all cases: cell-based
# EGFR = test: Western blot of EGFR expression; conditions: UR214-7 33 μM, UR214-9 33 μM; 24 hours
# Description: Cell lines, Culture, and Reagents. Cells were maintained in either DMEM (SKOV-3, KLE, OVCAR-3, OVCAR8-C5 and IGROV-1) or RPMI-1640 (ECC-1 and HCH-1), supplemented with 10% fetal calf serum (or 20% for OVCAR-3), penicillin (100 units/mL), and streptomycin (100 μg/mL) at 37° C. with 5% CO2 in a humidified incubator. Antibodies were purchased from Abcam (septin-2; ab179436) and Cell Signaling Technology; ERK (9102), p-ERK (4370), -actin (3700), u-Tubulin (2144), EGFR (4267) and HER2 (4290). FCF was purchased from Abcam. All other chemicals were from Sigma Aldrich. Synthesis of Derivaties. […] The reaction was monitored using thin-layer chromatography plates with DCM-MeOH or pure ethyl acetate as eluent. Spots were monitored in a UV chamber. […] Quantitative Real-Time PCR. […] Quantitative real-time PCR was conducted using QuantStudio 12 K Flex Real-Time PCR System (ABI) and the Taqman Gene Expression Assay (ABI) consisting of the FAM-labeled probes as follows: SEPT2 (Hs01565417_ml); WFDC2 (Hs00899484_ml); TBP (Hs00427620_ml) or B2M (Hs00187842_ml), which was used as reference for normalization. […] Cell viability, proliferation, and cellular apoptosis were measured using the MTS (Promega), BrdU cell proliferation (Cell Signaling Technology), and Caspase-Glo 3/7 apoptosis detection (Promega) assays, following the respective manufacturer's recommendations with suitable modification. […]
# ECC-1 cells = test: BrdU cell proliferation assay; conditions: ECC-1, 48 hours
# Description: Cell lines, Culture, and Reagents. Cells were maintained in either DMEM (SKOV-3, KLE, OVCAR-3, OVCAR8-C5 and IGROV-1) or RPMI-1640 (ECC-1 and HCH-1), supplemented with 10% fetal calf serum (or 20% for OVCAR-3), penicillin (100 units/mL), and streptomycin (100 μg/mL) at 37° C. with 5% CO2 in a humidified incubator. Antibodies were purchased from Abcam (septin-2; ab179436) and Cell Signaling Technology; ERK (9102), p-ERK (4370), -actin (3700), u-Tubulin (2144), EGFR (4267) and HER2 (4290). FCF was purchased from Abcam. All other chemicals were from Sigma Aldrich. Synthesis of Derivaties. […] The reaction was monitored using thin-layer chromatography plates with DCM-MeOH or pure ethyl acetate as eluent. Spots were monitored in a UV chamber. The reaction mixture, upon completion of the reaction, was poured into wet ice mixture and triturated, then the separated solid was filtered by vacuum. The product was washed with hexane, followed by diethyl ether, and was dried under vacuum. The compounds were characterized by spectrophotometric techniques. Quantitative Real-Time PCR. The indicated cell lines were transfected with siRNA targeting septin-2 or non-targeting control siRNA (Santa Cruz Biotechnology: sc-37007 or sc-40936) using Lipofectamine 3000 (Invitrogen). […] Quantitative real-time PCR was conducted using QuantStudio 12 K Flex Real-Time PCR System (ABI) and the Taqman Gene Expression Assay (ABI) consisting of the FAM-labeled probes as follows: SEPT2 (Hs01565417_ml); WFDC2 (Hs00899484_ml); TBP (Hs00427620_ml) or B2M (Hs00187842_ml), which was used as reference for normalization. […] Cell viability, proliferation, and cellular apoptosis were measured using the MTS (Promega), BrdU cell proliferation (Cell Signaling Technology), and Caspase-Glo 3/7 apoptosis detection (Promega) assays, following the respective manufacturer's recommendations with suitable modification. […] Survival curves between septin high and low population and their statistical significance were analyzed using GraphPad Prism software (Mantel-Cox test). […]
# septin-7 = test: Immunoblot of septin-7 expression; conditions: PANC-1, 1.0 and 10.0 μM, 48 hours
# actin = test: Confocal analysis of actin filaments (Phalloidin-TRITC); conditions: PANC-1 and JIMT1 cells, for 48 hours
# [1] = system: endometrial (ECC-1 and KLE) and ovarian (HCH-1, OVCAR-3, and SKOV-3) cancer cell lines; test: MTS cell viability, gynecologic cancer cell line panel
# Description: Cell lines, Culture, and Reagents. Cells were maintained in either DMEM (SKOV-3, KLE, OVCAR-3, OVCAR8-C5 and IGROV-1) or RPMI-1640 (ECC-1 and HCH-1), supplemented with 10% fetal calf serum (or 20% for OVCAR-3), penicillin (100 units/mL), and streptomycin (100 μg/mL) at 37° C. with 5% CO2 in a humidified incubator. Antibodies were purchased from Abcam (septin-2; ab179436) and Cell Signaling Technology; ERK (9102), p-ERK (4370), -actin (3700), u-Tubulin (2144), EGFR (4267) and HER2 (4290). FCF was purchased from Abcam. All other chemicals were from Sigma Aldrich. Synthesis of Derivaties. […] The reaction was monitored using thin-layer chromatography plates with DCM-MeOH or pure ethyl acetate as eluent. Spots were monitored in a UV chamber. The reaction mixture, upon completion of the reaction, was poured into wet ice mixture and triturated, then the separated solid was filtered by vacuum. The product was washed with hexane, followed by diethyl ether, and was dried under vacuum. The compounds were characterized by spectrophotometric techniques. Quantitative Real-Time PCR. The indicated cell lines were transfected with siRNA targeting septin-2 or non-targeting control siRNA (Santa Cruz Biotechnology: sc-37007 or sc-40936) using Lipofectamine 3000 (Invitrogen). Tri reagent and Direct-zol kit (Zymo Research) were used to lyse and isolate total RNA. Reverse transcription was performed using iScript cDNA synthesis kit (BioRad), both following the manufacturer's recommendations. Quantitative real-time PCR was conducted using QuantStudio 12 K Flex Real-Time PCR System (ABI) and the Taqman Gene Expression Assay (ABI) consisting of the FAM-labeled probes as follows: SEPT2 (Hs01565417_ml); WFDC2 (Hs00899484_ml); TBP (Hs00427620_ml) or B2M (Hs00187842_ml), which was used as reference for normalization. Cell Viability, Proliferation and Apoptosis Assay. Cell viability, proliferation, and cellular apoptosis were measured using the MTS (Promega), BrdU cell proliferation (Cell Signaling Technology), and Caspase-Glo 3/7 apoptosis detection (Promega) assays, following the respective manufacturer's recommendations with suitable modification. Enzyme-Linked Immunosorbent Assay (ELISA) and Immunoblotting. Cells were maintained overnight in the culture media described above. […] Following the treatment, cell lysates and supernatants were collected and subjected to HE4 assay (Human HE4 Quantikine ELISA Kit, R&D Systems). The amount of HE4 in supernatant was normalized to the protein concentration of matching cell lysate. The levels of HER2 were determined by Human Total ErbB2/Her2 DuoSet IC ELISA (R&D systems. Wester blot analysis was conducted using the protocol previously published (see Kim, K. K. et al. Tetrathiomolybdate inhibits mitochondrial complex IV and mediates degradation of hypoxia-inducible factor-1alpha in cancer cells. Sci. Rep. 5, 14296, 2015). Data Acquisition and Statistical Analysis. Gene expression profiling of septins, comparing microdissected normal ovarian stroma (N=8) against that of tumor stroma samples (N=31) from high grade serous ovarian cancer patients, was obtained from Mixed Ovarian Cancer (CAFs)-Wong-77-u133p2 data-set through ‘R2: Genomics Analysis and Visualization Platform (http://r2/am/n1). Mean values with SD were plotted and compared using Student t-test (two tail, unpaired heteroscedastic t-test, significant difference when p<0.01). The prognostic assessment of septin-2 amongst different cancers or septins in endometrial cancer was conducted using TCGA data acquired through Human Protein Atlas (http://www.proteinatlas.org) (see Uhlen, M. et al. Towards a knowledge-based Human Protein Atlas. Nat. Biotechnol. 28, 1248-1250, 2010). Survival curves between septin high and low population and their statistical significance were analyzed using GraphPad Prism software (Mantel-Cox test). […] Structural Modification of FCF. […]
SMILES,EGFR expression (EGFR),concentration inhibiting proliferation (ECC-1 cells; BrdU (FIG. 2B)),septin-7 expression (immunoblot) (septin-7),actin filaments (actin),"viability of tumor cells, dose-dependent (FIG. 2E) ([1]; 72 hours, MTS)",proliferation in multiple endometrial and ovarian cancer cells ([1]; at considerably lower doses than FCF),"proliferation (ECC-1 cells; BrdU, lower dose ranges)","cell viability ([1]; FCF 0, 100, 300 μM, 24 or 72 hours, time- and dose-dependent (FIG. 1))"
O=C(Nc1cc(Cl)nc(Cl)c1)Nc1cccc(SC(F)(F)F)c1F [UR214-9],did not have an effect,~4 µM and 4 to 5 µM,unaffected,actin filament disruption,potent activity across most cell lines,blocked proliferation,,
"O=C(Nc1ccccc1)Nc1ccnc(Cl)c1 [FCF, N-(2-chloro-4-pyridyl)-N′-phenylurea, reference compound]",,,,,,,lacked activity,reduced the viability
